# Measured values reported in patent publication US11712443B2, “17α-monoesters and 17α,21-diesters of cortexolone for use in the treatment of tumors” (COSMO TECHNOLOGIES LTD., priority 2014, dated 2023).
# Tests used:
# [1] = target: T1, Glucocorticoid Receptor (Homo sapiens, UniProt P04150); test: GR transcriptional reporter assay, agonist mode; format: cell-based
# T1 construct: endogenous in cells; host or cells: human kidney epithelial cells
# T1 sequence (P04150 1-777): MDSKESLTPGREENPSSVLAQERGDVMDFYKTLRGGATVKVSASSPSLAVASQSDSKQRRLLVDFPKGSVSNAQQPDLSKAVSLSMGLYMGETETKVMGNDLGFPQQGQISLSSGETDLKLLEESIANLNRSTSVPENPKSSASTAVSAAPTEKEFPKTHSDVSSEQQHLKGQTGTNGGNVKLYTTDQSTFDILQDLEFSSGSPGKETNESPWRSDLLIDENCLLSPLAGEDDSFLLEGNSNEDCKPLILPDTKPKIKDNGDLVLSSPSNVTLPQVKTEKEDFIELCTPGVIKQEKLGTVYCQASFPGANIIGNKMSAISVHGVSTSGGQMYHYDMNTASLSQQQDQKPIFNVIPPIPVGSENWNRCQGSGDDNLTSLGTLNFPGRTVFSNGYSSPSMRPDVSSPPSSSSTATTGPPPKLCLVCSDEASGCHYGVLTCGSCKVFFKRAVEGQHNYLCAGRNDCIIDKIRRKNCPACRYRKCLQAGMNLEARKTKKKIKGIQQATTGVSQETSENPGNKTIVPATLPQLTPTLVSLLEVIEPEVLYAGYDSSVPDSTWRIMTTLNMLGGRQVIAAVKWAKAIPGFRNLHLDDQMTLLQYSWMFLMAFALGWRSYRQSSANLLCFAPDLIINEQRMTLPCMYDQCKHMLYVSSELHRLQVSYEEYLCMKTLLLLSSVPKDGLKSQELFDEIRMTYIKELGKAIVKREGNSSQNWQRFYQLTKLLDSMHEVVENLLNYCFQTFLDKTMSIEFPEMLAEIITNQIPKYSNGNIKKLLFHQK
# Experimental: The androgen and glucocorticoid hormones elicit divergent and often opposing effects in cells, tissues, and animals. […] CB-03-10 GR antagonist and agonist activities were tested in an in vitro assay. Briefly, human kidney epithelial cells were transfected with DNA construct containing GR binding sites linked to luminescent based reporter molecule. After 24 hours, cells were treated under antagonist or agonist modes. After an additional 24 hours, luminescence which is proportional to GR agonist transcriptional activity was quantitated.
# Agonist Assay—was based on induction of luminescence by CB-03-10
# The agonist activity of CB-03-10 was compared to a RU486 which is known to not have agonist activity.
# [2] = In vitro metabolism in rat plasma; format: in vitro ADME; settings: 37 C; liquid chromatography; FIG. 13
# Experimental: To obtain some insights on the metabolism of CB-03-10 in human and rat plasma, a specific assay was designed. Briefly the compound was incubated at different time in human and rat plasma at 37 C. After incubation the samples were tested for presence of the intact compound by liquid chromatography.
compound,measurement,setting,value
"CCCCC(=O)O[C@]1(C(=O)COC(=O)CC)CC[C@H]2[C@@H]3CCC4=CC(=O)CC[C@]4(C)[C@H]3CC[C@@]21C [CB-03-10, cortexolone 17α-valerate-21-propionate]",GR agonist activity relative to that of 50 nM Dex,[1]; at very high concentrations,20%
same,GR agonist activity,"[1]; induction of luminescence, FIG. 8",essentially ineffective as GR agonist
same,degradation in rat plasma,[2],degraded more rapidly in rat compared to human plasma
